# Data: ChEMBL document CHEMBL1667751, “Synthesis and antimicrobial activity of highly functionalised novel β-lactam grafted spiropyrrolidines and pyrrolizidines” (2011)
# What was measured:
# [1] = tested on: Proteus vulgaris; assay: Antibacterial activity against Proteus vulgaris at 100 ug/ml after 24 hrs agar diffusion method; type: functional; settings: read-out: DIZ
# [2] = tested on: Proteus mirabilis; assay: Antibacterial activity against Proteus mirabilis at 100 ug/ml after 24 hrs agar diffusion method; type: functional; settings: read-out: DIZ
# [3] = tested on: Salmonella typhi; assay: Antibacterial activity against Salmonella typhi at 25 ug/ml after 24 hrs agar diffusion method; type: functional, Salmonella enterica subsp. enterica serovar Typhi; settings: Salmonella enterica, read-out: DIZ
# [4] = tested on: Proteus vulgaris; assay: Antibacterial activity against Proteus vulgaris at 25 ug/ml after 24 hrs agar diffusion method; type: functional; settings: read-out: DIZ
# [5] = tested on: Proteus mirabilis; assay: Antibacterial activity against Proteus mirabilis at 75 ug/ml after 24 hrs agar diffusion method; type: functional; settings: read-out: DIZ
# [6] = tested on: Proteus vulgaris; assay: Antibacterial activity against Proteus vulgaris at 50 ug/ml after 24 hrs agar diffusion method; type: functional; settings: read-out: DIZ
# [7] = tested on: Staphylococcus aureus; assay: Antibacterial activity against Staphylococcus aureus at 25 ug/ml after 24 hrs agar diffusion method; type: functional; settings: read-out: DIZ
# [8] = tested on: Staphylococcus aureus; assay: Antibacterial activity against Staphylococcus aureus at 50 ug/ml after 24 hrs agar diffusion method; type: functional; settings: read-out: DIZ
# [9] = tested on: Staphylococcus aureus; assay: Antibacterial activity against Staphylococcus aureus at 75 ug/ml after 24 hrs agar diffusion method; type: functional; settings: read-out: DIZ
# [10] = tested on: Proteus vulgaris; assay: Antibacterial activity against Proteus vulgaris at 75 ug/ml after 24 hrs agar diffusion method; type: functional; settings: read-out: DIZ
# [11] = tested on: Salmonella typhi; assay: Antibacterial activity against Salmonella typhi at 75 ug/ml after 24 hrs agar diffusion method; type: functional, Salmonella enterica subsp. enterica serovar Typhi; settings: Salmonella enterica, read-out: DIZ
# [12] = tested on: Salmonella typhi; assay: Antibacterial activity against Salmonella typhi at 50 ug/ml after 24 hrs agar diffusion method; type: functional, Salmonella enterica subsp. enterica serovar Typhi; settings: Salmonella enterica, read-out: DIZ
# [13] = tested on: Proteus mirabilis; assay: Antibacterial activity against Proteus mirabilis at 50 ug/ml after 24 hrs agar diffusion method; type: functional; settings: read-out: DIZ
# [14] = tested on: Staphylococcus aureus; assay: Antibacterial activity against Staphylococcus aureus at 100 ug/ml after 24 hrs agar diffusion method; type: functional; settings: read-out: DIZ
# [15] = tested on: Proteus mirabilis; assay: Antibacterial activity against Proteus mirabilis at 25 ug/ml after 24 hrs agar diffusion method; type: functional; settings: read-out: DIZ
# [16] = tested on: Salmonella typhi; assay: Antibacterial activity against Salmonella typhi at 100 ug/ml after 24 hrs agar diffusion method; type: functional, Salmonella enterica subsp. enterica serovar Typhi; settings: Salmonella enterica, read-out: DIZ
Structure (SMILES),zone of inhibition at 100 µg/mL [1] [mm],zone of inhibition at 100 µg/mL [2] [mm],zone of inhibition at 25 µg/mL [3] [mm],zone of inhibition at 25 µg/mL [4] [mm],zone of inhibition at 75 µg/mL [5] [mm],zone of inhibition at 50 µg/mL [6] [mm],zone of inhibition at 25 µg/mL [7] [mm],zone of inhibition at 50 µg/mL [8] [mm],zone of inhibition at 75 µg/mL [9] [mm],zone of inhibition at 75 µg/mL [10] [mm],zone of inhibition at 75 µg/mL [11] [mm],zone of inhibition at 50 µg/mL [12] [mm],zone of inhibition at 50 µg/mL [13] [mm],zone of inhibition at 100 µg/mL [14] [mm],zone of inhibition at 25 µg/mL [15] [mm],zone of inhibition at 100 µg/mL [16] [mm]
CCOC(=O)[C@@H]1[C@@H]([C@H]2[C@@H](Oc3ccccc3)C(=O)N2c2ccc(OC)cc2)C2CCCN2C12C(=O)c1ccccc1C2=O (stereo not given in full),26,22,11,9,18,18,9,14,18,23,17,15,15,24,8,23
CCOC(=O)[C@@H]1[C@@H]([C@H]2[C@@H](Oc3ccccc3)C(=O)N2c2ccc(OC)cc2)CN(C)C12C(=O)c1ccccc1C2=O,23,18,9,12,16,16,11,13,16,20,13,11,13,18,9,19
CCOC(=O)[C@@H]1[C@@H]([C@H]2[C@@H](c3ccccc3)C(=O)N2c2ccc(OC)cc2)CN(C)[C@]12C(=O)Nc1ccccc12,20,21,12,11,18,14,14,18,23,16,21,15,14,27,11,29
CCOC(=O)[C@@H]1[C@@H]([C@H]2[C@@H](Oc3ccccc3)C(=O)N2c2ccc(OC)cc2)C2CCCN2[C@]12C(=O)Nc1ccccc12 (stereo not given in full),> 40,36,13,19,24,20,14,18,22,27,21,16,16,34,12,31
CCOC(=O)[C@@H]1[C@@H]([C@H]2[C@@H](c3ccccc3)C(=O)N2c2ccc(OC)cc2)CN(C)C12C(=O)c1ccccc1C2=O,21,18,–,11,14,14,11,15,18,18,13,9,13,22,11,18
CCOC(=O)[C@@H]1[C@@H]([C@H]2[C@@H](Oc3ccccc3)C(=O)N2c2ccc(OC)cc2)CN(C)[C@]12C(=O)Nc1ccccc12,21,32,11,11,22,14,14,19,21,18,20,14,13,26,12,28
